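Exposure lasted 48 hours, with cells grown in 96-well plates and compounds tested at five concentrations. GI50 is the concentration that inhibits growth by half. TGI: concentration producing complete growth inhibition.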
What was measured:
Assay in all cases: NCI-60 cell line screen, 48 h; in the data active = GI50 below about 0.43 µM; inactive = the rest
[1] = tested on: A498 renal
[2] = tested on: A549 NSCLC
[3] = tested on: ACHN renal
[4] = tested on: BT-549 breast
[5] = tested on: CAKI-1 renal
[6] = tested on: CCRF-CEM leukemia
[7] = tested on: COLO 205 colon
[8] = tested on: DU-145 prostate
[9] = tested on: EKVX NSCLC
[10] = tested on: HL-60(TB) leukemia
[11] = tested on: HOP-62 NSCLC
[12] = tested on: HOP-92 NSCLC
[13] = tested on: IGROV1 ovarian
[14] = tested on: K-562 leukemia
[15] = tested on: KM12 colon
[16] = tested on: MALME-3M melanoma
[17] = tested on: MCF7 breast
[18] = tested on: MDA-MB-231 breast
[19] = tested on: MDA-MB-435
[20] = tested on: MOLT-4 leukemia
[21] = tested on: NCI-H226 lung
[22] = tested on: NCI-H23 lung
[23] = tested on: NCI-H460 lung
[24] = tested on: NCI-H522 lung
[25] = tested on: NCI/ADR-RES ovarian
[26] = tested on: OVCAR-3 ovarian
[27] = tested on: OVCAR-4 ovarian
[28] = tested on: OVCAR-5 ovarian
[29] = tested on: PC-3 prostate
[30] = tested on: RPMI-8226 leukemia
[31] = tested on: RXF 393 renal
[32] = tested on: SF-268 CNS
[33] = tested on: SF-295 CNS
[34] = tested on: SF-539 CNS
[35] = tested on: SK-MEL-2 melanoma
[36] = tested on: SK-MEL-28 melanoma
[37] = tested on: SK-MEL-5 melanoma
[38] = tested on: SK-OV-3 ovarian
[39] = tested on: SN12C renal
[40] = tested on: SNB-19 CNS
[41] = tested on: SNB-75 CNS
[42] = tested on: SW-620 colon
[43] = tested on: TK-10 renal
[44] = tested on: UACC-257 melanoma
[45] = tested on: UACC-62 melanoma
[46] = tested on: UO-31 renal
[47] = tested on: U251 CNS
[48] = tested on: 786-0 renal
[49] = tested on: M14 melanoma
[50] = tested on: SR leukemia
[51] = tested on: T-47D breast

C=C(C)[C@@H]1CC[C@]2(CO)CC[C@]3(C)[C@H](CC[C@@H]4[C@@]5(C)CC[C@H](NCO)C(C)(C)[C@@H]5CC[C@]43C)[C@@H]12
1570 nM: TGI [31]
inactive: GI50 [1] 802 nM | GI50 [2] 885 nM | GI50 [3] 943 nM | GI50 [4] 792 nM | GI50 [5] 882 nM | GI50 [6] 1020 nM | GI50 [7] 898 nM | GI50 [8] 878 nM | GI50 [9] 869 nM | GI50 [10] 1000 nM | GI50 [11] 862 nM | GI50 [12] 783 nM | GI50 [13] 899 nM | GI50 [14] 974 nM | GI50 [15] 886 nM | GI50 [16] 792 nM | GI50 [17] 794 nM | GI50 [18] 995 nM | GI50 [19] 896 nM | GI50 [20] 1000 nM | GI50 [21] 8.3 µM | GI50 [22] 869 nM | GI50 [23] 918 nM | GI50 [24] 1030 nM | GI50 [25] 894 nM | GI50 [26] 880 nM | GI50 [27] 827 nM | GI50 [28] 850 nM | GI50 [29] 850 nM | GI50 [30] 934 nM | GI50 [31] 842 nM | GI50 [32] 944 nM | GI50 [33] 873 nM | GI50 [34] 826 nM | GI50 [35] 961 nM | GI50 [36] 894 nM | GI50 [37] 870 nM | GI50 [38] 870 nM | GI50 [39] 790 nM | GI50 [40] 950 nM | GI50 [41] 710 nM | GI50 [42] 948 nM | GI50 [43] 965 nM | GI50 [44] 935 nM | GI50 [45] 918 nM | GI50 [46] 703 nM
1500 nM: TGI [39]
1830 nM: TGI [35]
1590 nM: TGI [5] | TGI [27] | TGI [37]
1670 nM: TGI [22]
2560 nM: TGI [20]
1720 nM: TGI [25]
1680 nM: TGI [13]
1910 nM: TGI [44]
1790 nM: TGI [23]
1850 nM: TGI [29]
1920 nM: TGI [32]
1690 nM: TGI [1]
1400 nM: TGI [41]
1350 nM: TGI [46]
1730 nM: TGI [2]
1750 nM: TGI [18]
1530 nM: TGI [4] | TGI [16]
1820 nM: TGI [7] | TGI [40]
2010 nM: TGI [24]
20.5 µM: TGI [21]
3.59 µM: TGI [14]
3.21 µM: TGI [6]
1600 nM: TGI [12]
1650 nM: TGI [3]
1960 nM: TGI [42]
1640 nM: TGI [9]
1580 nM: TGI [8] | TGI [33]
2320 nM: TGI [10]
2500 nM: TGI [30]
1560 nM: TGI [28]
1610 nM: TGI [17] | TGI [26] | TGI [36] | TGI [38]
1780 nM: TGI [19] | TGI [43]
1630 nM: TGI [15] | TGI [45]
1740 nM: TGI [11]
1520 nM: TGI [34]

Cc1cc(NCCCCCCNc2cc(C)nc3ccc(N)cc23)c2cc(N)ccc2n1
> 100000 nM: TGI [40]
> 100 µM: TGI [47]

COc1cc2ccc3ccncc3c2cc1OC
> 10000 nM: TGI [2] | TGI [3] | TGI [5] | TGI [7] | TGI [11] | TGI [13] | TGI [16] | TGI [17] | TGI [19] | TGI [20] | TGI [22] | TGI [23] | TGI [25] | TGI [27] | TGI [28] | TGI [30] | TGI [31] | TGI [32] | TGI [35] | TGI [36] | TGI [37] | TGI [38] | TGI [41] | TGI [42] | TGI [45]
> 10 µM: TGI [48] | TGI [6] | TGI [14] | TGI [49] | TGI [50] | TGI [51] | TGI [47]
